# Measured values as given in US20100056524A1, “Compound” (priority 2008, published 2010).
# pIC50: −log10 of the molar value.
# Biological target: T1, TBK1 (Homo sapiens, UniProt Q9UHD2)
# T1 construct: All protein kinases were of human origin and encoded full length proteins, unless indicated otherwise; His6; made in house; host or cells: insect Sf21 cells
# T1 sequence (Q9UHD2 1-729): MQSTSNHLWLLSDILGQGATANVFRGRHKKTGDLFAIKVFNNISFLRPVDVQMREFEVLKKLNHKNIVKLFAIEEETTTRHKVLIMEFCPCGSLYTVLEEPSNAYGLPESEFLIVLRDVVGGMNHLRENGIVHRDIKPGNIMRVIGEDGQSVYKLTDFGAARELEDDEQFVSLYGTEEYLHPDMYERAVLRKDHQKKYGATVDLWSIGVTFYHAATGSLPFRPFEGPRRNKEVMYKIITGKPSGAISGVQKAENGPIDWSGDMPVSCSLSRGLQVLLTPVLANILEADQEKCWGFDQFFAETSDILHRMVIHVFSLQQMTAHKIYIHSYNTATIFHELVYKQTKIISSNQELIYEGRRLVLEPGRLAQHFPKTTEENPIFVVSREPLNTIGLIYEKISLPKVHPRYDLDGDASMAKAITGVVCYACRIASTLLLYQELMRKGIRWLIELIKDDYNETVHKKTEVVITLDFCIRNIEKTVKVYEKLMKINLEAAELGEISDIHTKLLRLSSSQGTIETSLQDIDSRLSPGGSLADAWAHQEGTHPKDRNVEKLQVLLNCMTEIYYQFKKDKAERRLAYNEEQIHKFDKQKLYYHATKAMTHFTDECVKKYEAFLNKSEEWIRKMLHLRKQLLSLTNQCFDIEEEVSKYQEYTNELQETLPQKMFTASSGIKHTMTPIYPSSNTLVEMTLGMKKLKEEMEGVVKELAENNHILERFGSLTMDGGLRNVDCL
# Experiment: TBK1 protein kinase assay ([γ-33P]ATP, P81 filterplates)
# Format: biochemical
# Settings: 50 μM ATP; read-out: Potency (TBK1 IC50 potency score)
# How it was run: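 Human TBK1 assayed for 30 min with peptide substrate (300 μM), 50 μM [γ-33P]ATP and 10 mM magnesium acetate in 50 mM Tris/HCl pH 7.5, 0.1 mM EGTA, 0.1% 2-mercaptoethanol. Stopped with orthophosphoric acid and counted on P81 filters. IC50 from 10 compound concentrations.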
row,Structure (SMILES),pIC50
1,"O=C(NCCCNc1nc(Nc2cnn(C3CCOCC3)c2)ncc1C1CC1)C1CCC1 [Example 192, Cyclobutanecarboxylic acid (3-{5-cyclopropyl-2-[1-(tetrahydro-pyran-4-yl)-1H-pyrazol-4-ylamino]-pyrimidin-4-ylamino}-propyl)-amide]",> 7.00
2,"O=C(NCCCNc1nc(Nc2ccc3cnn(CC4CC4)c3c2)ncc1C1CC1)C1CCC1 [Example 193, Cyclobutanecarboxylic acid {3-[5-cyclopropyl-2-(1-cyclopropylmethyl-1H-indazol-6-ylamino)-pyrimidin-4-ylamino]-propyl}-amide]",> 7.00
3,"CN1CCC(Oc2ccc(Nc3ncc(C4CC4)c(NCCCNC(=O)C4CCC4)n3)cn2)CC1 [Example 195, Cyclobutanecarboxylic acid (3-{5-cyclopropyl-2-[6-(1-methyl-piperidin-4-yloxy)-pyridin-3-ylamino]-pyrimidin-4-ylamino}-propyl)-amide]",> 7.00
4,"CN1CCN(CCOc2ccc(Nc3ncc(C4CC4)c(NCCCNC(=O)C4CCC4)n3)cn2)CC1 [Example 196, Cyclobutanecarboxylic acid [3-(5-cyclopropyl-2-{6-[2-(4-methyl-piperazin-1-yl)-ethoxy]-pyridin-3-ylamino}-pyrimidin-4-ylamino)-propyl]-amide]",> 7.00
5,"CN1CCc2ccc(Nc3ncc(C4CC4)c(NCCCNC(=O)C4CCC4)n3)cc2C1 [Example 197, Cyclobutanecarboxylic acid {3-[5-cyclopropyl-2-(2-methyl-1,2,3,4-tetrahydro-isoquinolin-7-ylamino)-pyrimidin-4-ylamino]-propyl}-amide]",> 7.00
6,"Cn1cnc2cc(Nc3ncc(C4CC4)c(NCCCNC(=O)C4CCC4)n3)cnc21 [Example 198, Cyclobutanecarboxylic acid {3-[5-cyclopropyl-2-(3-methyl-3H-imidazo[4,5-b]pyridin-6-ylamino)-pyrimidin-4-ylamino]-propyl}-amide]",> 7.00
7,"CN1CCc2cc(Nc3ncc(C4CC4)c(NCCCNC(=O)C4CCC4)n3)ccc2C1 [Example 199, Cyclobutanecarboxylic acid {3-[5-cyclopropyl-2-(2-methyl-1,2,3,4-tetrahydro-isoquinolin-6-ylamino)-pyrimidin-4-ylamino]-propyl}-amide]",> 7.00
8,"O=C(NCCCNc1nc(Nc2cnn(CC3CC3)c2)ncc1C1CC1)C1CCC1 [Example 201, Cyclobutanecarboxylic acid {3-[5-cyclopropyl-2-(1-cyclopropylmethyl-1H-pyrazol-4-ylamino)-pyrimidin-4-ylamino]-propyl}-amide]",> 7.00
9,"O=C(NCCCNc1nc(Nc2cnn(C3CCC3)c2)ncc1C1CC1)C1CCC1 [Example 202, Cyclobutanecarboxylic acid {3-[2-(1-cyclobutyl-1H-pyrazol-4-ylamino)-5-cyclopropyl-pyrimidin-4-ylamino]-propyl}-amide]",> 7.00
10,"CC(C)N1CCC(n2cc(Nc3ncc(C4CC4)c(NCCCNC(=O)C4CCC4)n3)cn2)CC1 [Example 203, Cyclobutanecarboxylic acid (3-{5-cyclopropyl-2-[1-(1-isopropyl-piperidin-4-yl)-1H-pyrazol-4-ylamino]-pyrimidin-4-ylamino}-propyl)-amide]",> 7.00
11,"CC(C)(C)N1CCC(n2cc(Nc3ncc(C4CC4)c(NCCCNC(=O)C4CCC4)n3)cn2)CC1 [Example 205, Cyclobutanecarboxylic acid (3-{2-[1-(1-tert-butyl-piperidin-4-yl)-1H-pyrazol-4-ylamino]-5-cyclopropyl-pyrimidin-4-ylamino}-propyl)-amide]",> 7.00
12,"O=C(NCCCNc1nc(Nc2ccc(N3CCN(C4CC4)CC3)nc2)ncc1C1CC1)C1CCC1 [Example 206, Cyclobutanecarboxylic acid (3-{5-cyclopropyl-2-[6-(4-cyclopropyl-piperazin-1-yl)-pyridin-3-ylamino]-pyrimidin-4-ylamino}-propyl)-amide]",> 7.00
13,"O=C(NCCCNc1nc(Nc2ccc(NC3CCOCC3)nc2)ncc1C1CC1)C1CCC1 [Example 207, Cyclobutanecarboxylic acid (3-{5-cyclopropyl-2-[6-(tetrahydro-pyran-4-ylamino)-pyridin-3-ylamino]-pyrimidin-4-ylamino}-propyl)-amide]",> 7.00

# More lines, now with the values ahead:
row,pIC50,Structure (SMILES)
1,> 7.00,"O=C(NCCCNc1nc(Nc2ccc3nccnc3c2)ncc1C1CC1)C1CCC1 [Example 190, Cyclobutanecarboxylic acid {3-[5-cyclopropyl-2-(quinoxalin-6-ylamino)-pyrimidin-4-ylamino]-propyl}-amide]"
2,> 7.00,"O=C(NCCCNc1nc(Nc2ccc3ncccc3c2)ncc1C1CC1)C1CCC1 [Example 191, Cyclobutanecarboxylic acid {3-[5-cyclopropyl-2-(quinolin-6-ylamino)-pyrimidin-4-ylamino]-propyl}-amide]"
3,> 7.00,"O=C(NCCCNc1nc(Nc2ccc3cn(CC4CC4)nc3c2)ncc1C1CC1)C1CCC1 [Example 194, Cyclobutanecarboxylic acid {3-[5-cyclopropyl-2-(2-cyclopropylmethyl-2H-indazol-6-ylamino)-pyrimidin-4-ylamino]-propyl}-amide]"
4,> 7.00,"Cn1ncc2cc(Nc3ncc(C4CC4)c(NCCCNC(=O)C4CCC4)n3)cnc21 [Example 200, Cyclobutanecarboxylic acid {3-[5-cyclopropyl-2-(1-methyl-1H-pyrazolo[3,4-b]pyridin-5-ylamino)-pyrimidin-4-ylamino]-propyl}-amide]"
5,> 7.00,"CNc1ccc(Nc2ncc(C3CC3)c(NCCCNC(=O)C3CCC3)n2)cn1 [Example 204, Cyclobutanecarboxylic acid {3-[5-cyclopropyl-2-(6-methylamino-pyridin-3-ylamino)-pyrimidin-4-ylamino]-propyl}-amide]"
6,> 7.00,"O=C(NCCCNc1nc(Nc2ccc(C3CC3)nc2)ncc1C1CC1)C1CCC1 [Example 208, Cyclobutanecarboxylic acid {3-[5-cyclopropyl-2-(6-cyclopropyl-pyridin-3-ylamino)-pyrimidin-4-ylamino]-propyl}-amide]"
7,> 7.00,"Cc1nc2ccc(Nc3ncc(C4CC4)c(NCCCNC(=O)C4CCC4)n3)cc2[nH]1 [Example 209, Cyclobutanecarboxylicacid{3-[5-cyclopropyl-2-(2-methyl-3H-benzimidazol-5-ylamino)-pyrimidin-4-ylamino]-propyl}-amide]"
8,> 7.00,"O=C(NCCCNc1nc(Nc2ccc3c(cnn3C3CC3)c2)ncc1C1CC1)C1CCC1 [Example 210, Cyclobutanecarboxylicacid{3-[5-cyclopropyl-2-(1-cyclopropyl-1H-indazol-5-ylamino)-pyrimidin-4-ylamino]-propyl}-amide]"
9,> 7.00,"O=C(NCCCNc1nc(Nc2ccc3cnn(C4CC4)c3c2)ncc1C1CC1)C1CCC1 [Example 211, Cyclobutanecarboxylicacid{3-[5-cyclopropyl-2-(1-cyclopropyl-1H-indazol-6-ylamino)-pyrimidin-4-ylamino]-propyl}-amide]"
10,> 7.00,"O=C(NCCCNc1nc(Nc2ccc3c(cnn3CC3CC3)c2)ncc1C1CC1)C1CCC1 [Example 212, Cyclobutanecarboxylicacid{3-[5-cyclopropyl-2-(1-cyclopropylmethyl-1H-indazol-5-ylamino)-pyrimidin-4-ylamino]-propyl}-amide]"
11,> 7.00,"O=C(NCCCNc1nc(Nc2ccc3nn(CC4CC4)cc3c2)ncc1C1CC1)C1CCC1 [Example 213, Cyclobutanecarboxylicacid{3-[5-cyclopropyl-2-(2-cyclopropylmethyl-2H-indazol-5-ylamino)-pyrimidin-4-ylamino]-propyl}-amide]"
12,> 7.00,"O=C(NCCCNc1nc(Nc2ccc3[nH]nnc3c2)ncc1C1CC1)C1CCC1 [Example 214, Cyclobutanecarboxylicacid{3-[2-(1H-benzotriazol-5-ylamino)-5-cyclopropyl-pyrimidin-4-ylamino]-propyl}-amide]"
